Measured values taken from patent publication US9309213B2, “C-3 substituted bicyclooctane based HIV protease inhibitors” (Purdue Research Foundation, priority 2011, dated 2016).
“And” between values parts separate entries of the source, which are not always exact repeats. Equal values may be shown once. Read-outs that look alike come from different tables or passages of the source.

What was measured:
HIV-1LAI = assay: In vitro antiviral assay, MT-2 cells exposed to HIV-1LAI, MTT assay; assay type: cell-based; settings: for loss of antiviral activity (higher IC50) compared to 22: relative to inhibitor 22
[1] = system: HIV-1ERS104pre (wild type); assay: Antiviral assay in PHA-PBMs, inhibition of p24 Gag protein production, wild-type isolate; assay type: cell-based
HIV-1MDR/B = assay: microbe, parasite or virus in culture; assay type: cell-based; settings: for IC50: Human immunodeficiency virus 1, read-out: IC50 ± SDs; for EC50 / fold-change in EC50: Table 4; for EC50: HIV-1MDR/B (X4), PHA-PBMs, p24 Gag
HIV-1MDR/C = assay: microbe, parasite or virus in culture; assay type: cell-based; settings: for IC50: Human immunodeficiency virus 1, read-out: IC50 ± SDs; for EC50 / fold-change in EC50: Table 4; for EC50: HIV-1MDR/C (X4), PHA-PBMs, p24 Gag
HIV-1MDR/G = assay: microbe, parasite or virus in culture; assay type: cell-based; settings: for IC50: Human immunodeficiency virus 1, read-out: IC50 ± SDs; for EC50 / fold-change in EC50: Table 4; for EC50: HIV-1MDR/G (X4), PHA-PBMs, p24 Gag
HIV-1MDR/TM = assay: microbe, parasite or virus in culture; assay type: cell-based; settings: for IC50: Human immunodeficiency virus 1, read-out: IC50 ± SDs; for EC50 / fold-change in EC50: Table 4; for EC50: HIV-1MDR/TM (X4), PHA-PBMs, p24 Gag
[2] = system: multidrug-resistant HIV-1 variants; assay: Antiviral activity against the panel of multidrug-resistant HIV-1 variants; assay type: cell-based
Protocol: Inhibitors 22 with a 3(S)-hydroxyl group and 25 with a 3(R)-hydroxyl group on the Cp-THF ligand were tested against a panel of multidrug-resistant HIV-1 variants. […] The contrast in antiviral activity of 22 compared to 25 underlines the importance of the stereochemistry at the 3-position of the Cp-THF ligand.
Such a stark contrast in antiviral activities underlines the importance of the stereochemistry at the 3-position of the P2 ligand.

HIV-1 protease = target: T1, HIV-1 protease (Human immunodeficiency virus type 1 group M subtype B, UniProt P04585); assay: HIV-1 protease enzyme inhibitory assay (protocol of Toth and Marshall); assay type: biochemical
T1 construct: The HIV aspartic protease plays a central role in the life cycle of the virus; It cleaves the virally encoded polyprotein
Description: Inhibitors were designed to make additional interactions in the S2-subsite of the protease, especially with the Gly48 backbone atoms in the flap region of the enzyme. All inhibitors in Table 1 were first evaluated in the enzyme inhibitory assay developed by Toth and Marshall (Toth and Marshall, Int. J. Pept. Protein Res. 1990, 36, 544-550). […] The 3-(S)-hydroxy Cp-THF ligand was also investigated in combination with other sulfonamide substituents.
All inhibitors were first tested for their enzyme inhibitory potency using the assay protocol developed by Toth and Marshall.

[3] = Human immunodeficiency virus 1, MT2, Table 1, MT-2 cells, 100 TCID50s of HIV-1LAI, MTT assay, means of at least two experiments
[4] = Human immunodeficiency virus 1, MT2, read-out: antiviral IC50
[5] = Human immunodeficiency virus 1, read-out: IC50 ± SDs
[6] = HIV-1MDR/B compared to wild-type HIV-1ERS104pre
[7] = HIV-1MDR/C compared to wild-type HIV-1ERS104pre
[8] = HIV-1MDR/G compared to wild-type HIV-1ERS104pre
[9] = HIV-1MDR/TM compared to wild-type HIV-1ERS104pre
[10] = Human immunodeficiency virus 1, MT2, read-out: ID50, Table 2, antiviral activity

COc1ccc(S(=O)(=O)N(CC(C)C)C[C@@H](O)[C@H](Cc2ccccc2)NC(=O)O[C@@H]2C[C@@H]3[C@H](O)CO[C@@H]3C2)cc1 [Inhibitor 22, (3S,3aR,5R,6aR)-3-hydroxyhexahydro-2H-cyclopenta[b]furan-5-yl (2S,3R)-3-hydroxy-4-(4-(methoxy)-N-isobutylphenylsulfonamido)-1-phenylbutan-2-ylcarbamate]
IC50 (HIV-1LAI; [3]): 5 nM | IC50 (HIV-1LAI; [4]): 5 nM | IC50 (HIV-1LAI; Table 1, MT-2 cells, 100 TCID50s of HIV-1LAI, MTT assay, means of at least two experiments): 7 nM | IC50 ([1]; Human immunodeficiency virus 1): 20 nM | IC50 [1, 5]: 20 ± 4 nM | IC50 (HIV-1MDR/B): > 1000 nM | IC50 (HIV-1MDR/C): > 1000 nM | IC50 (HIV-1MDR/G): 270 ± 20 nM | IC50 (HIV-1MDR/TM): 41 ± 4 nM

CC(C)CN(C[C@@H](O)[C@H](Cc1ccccc1)NC(=O)O[C@H]1CCOC1)S(=O)(=O)c1ccc(N)cc1 [APV, amprenavir, reference compound]
IC50 ([1]; Human immunodeficiency virus 1, Table 3, HIV-1ERS104pre (wild type), PHA-PBMs, p24 Gag, read-out: IC50 ± SDs): 30 ± 6 nM | IC50 (HIV-1MDR/B): 930 ± 280 nM | fold change of IC50 (HIV-1MDR/B; Table 3, HIV-1MDR/B compared to wild-type HIV-1ERS104pre): 31 | IC50 (HIV-1MDR/C): 260 ± 30 nM | fold change of IC50 (HIV-1MDR/C; Table 3, HIV-1MDR/C compared to wild-type HIV-1ERS104pre): 9 | IC50 (HIV-1MDR/G): 380 ± 30 nM | fold change of IC50 (HIV-1MDR/G; Table 3, HIV-1MDR/G compared to wild-type HIV-1ERS104pre): 12 | IC50 (HIV-1MDR/TM): 190 ± 60 nM | fold change of IC50 (HIV-1MDR/TM; Table 3, HIV-1MDR/TM compared to wild-type HIV-1ERS104pre): 6

COc1ccc(S(=O)(=O)N(CC(C)C)C[C@@H](O)[C@H](Cc2ccccc2)NC(=O)O[C@@H]2C[C@@H]3[C@@H](O)CO[C@@H]3C2)cc1 [Inhibitor 25]
IC50 (HIV-1LAI; [3]): 2.9 nM | IC50 (HIV-1LAI; [4]): 2.9 nM | IC50 ([1]; Human immunodeficiency virus 1): 2.9 nM | IC50 [1, 5]: 2.9 ± 0.8 nM | IC50 (HIV-1MDR/B): 29 ± 7 nM | IC50 (HIV-1MDR/C): 22 ± 3 nM | IC50 (HIV-1MDR/G): 4.5 ± 0.7 nM | IC50 (HIV-1MDR/TM): 3.1 ± 2 nM | IC50 ([2]; Human immunodeficiency virus 1, read-out: IC50 values against various multidrug-resistant HIV-1 strains): 2.9 to 29 nM

COC(=O)N[C@@H]1CO[C@@H]2C[C@H](OC(=O)N[C@@H](Cc3ccccc3)[C@H](O)CN(CC(C)C)S(=O)(=O)c3ccc(OC)cc3)C[C@H]12 [Inhibitor 19l]
EC50 ([1]; Table 4, HIV-1ERS104pre (wt), PHA-PBMs, p24 Gag, read-out: EC50 ± SDs): 29 ± 2 nM | EC50 (HIV-1MDR/B): 75 ± 11 nM | fold-change in EC50 (HIV-1MDR/B; [6]): 3 | EC50 (HIV-1MDR/C): 30 ± 6 nM | fold-change in EC50 (HIV-1MDR/C; [7]): 1 | EC50 (HIV-1MDR/G): 39 ± 1 nM | fold-change in EC50 (HIV-1MDR/G; [8]): 1 | EC50 (HIV-1MDR/TM): 74 ± 6 nM | fold-change in EC50 (HIV-1MDR/TM; [9]): 3 | fold changes in EC50 ([2]; all MDR HIV-1 viruses versus wild type): < 3

COc1ccc(S(=O)(=O)N(CC(C)C)C[C@@H](O)[C@H](Cc2ccccc2)NC(=O)O[C@@H]2C[C@@H]3[C@H](C)CO[C@@H]3C2)cc1 [Inhibitor 19e, (3S,3aR,5R,6aR)-3-Methylhexahydro-2H-cyclopenta[b]furan-5-yl [(2S,3R)-3-Hydroxy-4-(N-iso-butyl-4-methoxyphenylsulfonamido)-1-phenylbutan-2-yl]carbamate]
Ki (HIV-1 protease; Table 1, read-out: Ki): 0.02 nM and 0.16 nM | IC50 (HIV-1LAI; [3]): 25 nM | loss of antiviral activity (higher IC50) compared to 22 (HIV-1LAI): 5 fold

COc1ccc(S(=O)(=O)N(CC(C)C)C[C@@H](O)[C@H](Cc2ccccc2)NC(=O)O[C@@H]2C[C@H]3[C@@H](C2)OC[C@H]3OC(=O)N(C)C)cc1
Ki (HIV-1 protease; Table 2, read-out: Ki): 0.02 nM | IC50 (HIV-1LAI; [10]): 4.7 nM

((3R,3aS,5R,6aR)-3-Methoxyhexahydro-2H-cyclopenta[b]furan-5-yl [(2S,3R)-3-Hydroxy-4-(N-iso-butyl-4-methoxyphenylsulfonamido)-1-phenylbutan-2-yl]-carbamate [Inhibitor 19d]
Ki (HIV-1 protease; read-out: Ki / enzyme inhibitory potency): 0.006 nM | IC50 (HIV-1LAI; Table 1, MT-2 cells, 100 TCID50s of HIV-1LAI, MTT assay, means of at least two experiments, read-out: IC50): 3.4 nM

COc1ccc(S(=O)(=O)N(CC(C)C)C[C@@H](O)[C@H](Cc2ccccc2)NC(=O)O[C@@H]2C[C@@H]3[C@H](OC)CO[C@@H]3C2)cc1 [Inhibitor 19b, (3S,3aS,5R,6aR)-3-Methoxyhexahydro-2H-cyclopenta[b]furan-5-yl [(2S,3R)-3-Hydroxy-4-(N-iso-butyl-4-methoxyphenylsulfonamido)-1-phenylbutan-2-yl]carbamate]
Ki (HIV-1 protease; Table 1, read-out: Ki): 0.39 nM | Ki (HIV-1 protease; read-out: Ki): 0.95 nM | IC50 (HIV-1LAI; [3]): 37 nM | IC50 (HIV-1LAI; [4]): 37 nM | loss of antiviral activity (higher IC50) compared to 22 (HIV-1LAI): ~5 fold and ~7 fold

COC(=O)N[C@H]1CO[C@@H]2C[C@H](OC(=O)N[C@@H](Cc3ccccc3)[C@H](O)CN(CC(C)C)S(=O)(=O)c3ccc(OC)cc3)C[C@H]12 [Inhibitor 19m]
EC50 ([1]; wild-type HIV-1ERS104pre, read-out: EC50): 3 nM | EC50 (HIV-1MDR/B): 18 ± 3 nM | fold-change in EC50 (HIV-1MDR/B; [6]): 6 | EC50 (HIV-1MDR/C): 15 ± 5 nM | fold-change in EC50 (HIV-1MDR/C; [7]): 5 | EC50 (HIV-1MDR/G): 20 ± 5 nM | fold-change in EC50 (HIV-1MDR/G; [8]): 7 | EC50 (HIV-1MDR/TM): 24 ± 4 nM | fold-change in EC50 (HIV-1MDR/TM; [9]): 8 | EC50 ([2]; range over the strains): 15 to 24 nM

COc1ccc(S(=O)(=O)N(CC(C)C)C[C@@H](O)[C@H](Cc2ccccc2)NC(=O)O[C@@H]2C[C@@H]3[C@H](NS(C)(=O)=O)CO[C@@H]3C2)cc1 [Inhibitor 19i, (3S,3aR,5R,6aR)-3-(methylsulfonamido)hexahydro-2H-cyclopenta[b]furan-5-yl ((2S,3R)-3-hydroxy-4-(N-isobutyl-4-methoxyphenylsulfonamido)-1-phenylbutan-2-yl)-carbamate]
Ki (HIV-1 protease; Table 2, read-out: Ki): 0.017 nM and 0.032 nM | IC50 (HIV-1LAI; [10]): 28 nM

CC(C)CN(C[C@@H](O)[C@H](Cc1ccccc1)NC(=O)O[C@@H]1C[C@@H]2[C@@H](O)CO[C@@H]2C1)S(=O)(=O)c1ccc(N)cc1 [Inhibitor 26, (3R,3aR,5R,6aR)-3-Hydroxyhexahydro-2H-cyclopenta[b]furan-5-yl [(2S,3R)-4-(4-Amino-N-iso-butylphenylsulfonamido)-3-hydroxy-1-phenylbutan-2-yl]-carbamate]
Ki (HIV-1 protease; Table 1, read-out: Ki): 0.006 nM | IC50 (HIV-1LAI; [3]): 36 nM

COc1ccc(S(=O)(=O)N(CC(C)C)C[C@@H](O)[C@H](Cc2ccccc2)NC(=O)O[C@@H]2C[C@@H]3[C@@H](NS(C)(=O)=O)CO[C@@H]3C2)cc1 [Inhibitor 19j, (3R,3aR,5R,6aR)-3-(methylsulfonamido)hexahydro-2H-cyclopenta[b]furan-5-yl ((2S,3R)-3-hydroxy-4-(N-isobutyl-4-methoxyphenylsulfonamido)-1-phenylbutan-2-yl) carbamate]
Ki (HIV-1 protease; Table 2, read-out: Ki): 0.18 nM | IC50 (HIV-1LAI; [10]): 50 nM
